These are literature values, as cited in patent publication US20240315940A1, “Topical Nourishing/Antimicrobial Compositions” (Laboratory Skin Care, Inc., priority 2021, published 2024).

In the data set the test system is bacteria, fungi, Pseudomonas aeruginosa, Pseudomonas capacia, Staphylococcus aureus, Escherichia coli, Candida albicans, Aspergillus niger, Salmonella …. To be noted: whole genera of microorganisms.

Turning to `Oc1cc(Cl)ccc1Oc1ccc(Cl)cc1Cl` [triclosan], the effectiveness against microorganisms entry is on record as “effective”.
